The values below come from PubChem BioAssay AID540264 (Southern Research Specialized Biocontainment Screening …, 2011).

Where “and” joins values, the source holds several entries; their conditions need not be identical. Equal values may be shown once. Calls of active or inactive are those of the source.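 The calls were made as follows: active = CPE inhibition of 50% or more; inactive = the rest.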

System in the first assay: not listed separately
In words: protection of HEp-2 cells from RSV killing – RSV Long, luminescence, synthesized compounds, set 11, dose response (AID 540264). The settings on record: HEp-2 RSV Long CPE inhibition, luminescence; at 200 µM (top of the series).
In the case of `COCCCNC(=O)c1ccc(Cn2c(=O)c3cc(Cl)ccc3n(Cc3ccc(C)cc3)c2=O)cc1`, the CPE inhibition is 5.48% (inactive). On to `COCCCNC(=O)c1ccc(Cn2c(=O)c3ccccc3n(Cc3ccccc3Br)c2=O)cc1`, for which the CPE inhibition is 0.32% (inactive). For the compound `COCCCNC(=O)c1ccc(Cn2c(=O)c3ccccc3n(Cc3ccccc3F)c2=O)cc1`, the CPE inhibition is 1.77% (inactive).

In the next assay the test system is HEp-2 RSV Long CPE inhibition, luminescence. The description is as above.
Details: not given
Usually IC50 stands for the concentration that inhibits the measured activity by half. As for `CCOCCCNC(=O)c1ccc(Cn2c(=O)c3ccccc3n(Cc3ccc(C)cc3)c2=O)cc1`, the IC50 is 1.72 µM. For the compound `Cc1ccc(Cn2c(=O)n(Cc3ccc(C(=O)NCCCN(C)C)cc3)c(=O)c3ccccc32)cc1`, the IC50 was 9.29 µM. Regarding `Cc1ccc(Cn2c(=O)n(Cc3ccc(C(=O)NCCCOC(C)C)cc3)c(=O)c3ccccc32)cc1`, the IC50 was 1.66 µM. Still for that read-out and setting: as for `COCCCNC(=O)c1ccc(Cn2c(=O)c3ccccc3n(Cc3ccc(F)cc3)c2=O)cc1`, the figure is 5 µM; as for `COCCCNC(=O)c1ccc(Cn2c(=O)c3ccccc3n(Cc3cccc(Br)c3)c2=O)cc1`, 2.15 µM. Same read-out and setting: as for `Cc1ccc(Cn2c(=O)n(Cc3ccc(C(=O)Nc4ccncc4)cc3)c(=O)c3ccccc32)cc1`, the figure is 6.29 µM; as for `Cc1ccc(C)c(NC(=O)[C@@H]2CCCN2S(=O)(=O)c2cccc3cccnc23)c1`, 1.5 µM and 1.7 µM; as for `Cc1ccc(Cn2c(=O)n(Cc3ccc(C(=O)NC(C)(C)C)cc3)c(=O)c3ccccc32)cc1`, 1.8 µM.
